# Results published in publication PMC10536273, “Development of Masitinib Derivatives with Enhanced M^pro Ligand Efficiency and Reduced Cytotoxicity” (Molecules, 2023).
# pIC50, pKi: −log10 of the molar value. Where a name gives a salt, the structure may show the parent alone. Read-outs that look alike come from different tables or passages of the source.
# Key:
# c-Kit enzyme = c-Kit enzyme (Homo sapiens, UniProt P10721); experiment: Luminescence-based in vitro c-Kit kinase assay; assay type: biochemical
# Sequence of c-Kit enzyme (P10721 26-976): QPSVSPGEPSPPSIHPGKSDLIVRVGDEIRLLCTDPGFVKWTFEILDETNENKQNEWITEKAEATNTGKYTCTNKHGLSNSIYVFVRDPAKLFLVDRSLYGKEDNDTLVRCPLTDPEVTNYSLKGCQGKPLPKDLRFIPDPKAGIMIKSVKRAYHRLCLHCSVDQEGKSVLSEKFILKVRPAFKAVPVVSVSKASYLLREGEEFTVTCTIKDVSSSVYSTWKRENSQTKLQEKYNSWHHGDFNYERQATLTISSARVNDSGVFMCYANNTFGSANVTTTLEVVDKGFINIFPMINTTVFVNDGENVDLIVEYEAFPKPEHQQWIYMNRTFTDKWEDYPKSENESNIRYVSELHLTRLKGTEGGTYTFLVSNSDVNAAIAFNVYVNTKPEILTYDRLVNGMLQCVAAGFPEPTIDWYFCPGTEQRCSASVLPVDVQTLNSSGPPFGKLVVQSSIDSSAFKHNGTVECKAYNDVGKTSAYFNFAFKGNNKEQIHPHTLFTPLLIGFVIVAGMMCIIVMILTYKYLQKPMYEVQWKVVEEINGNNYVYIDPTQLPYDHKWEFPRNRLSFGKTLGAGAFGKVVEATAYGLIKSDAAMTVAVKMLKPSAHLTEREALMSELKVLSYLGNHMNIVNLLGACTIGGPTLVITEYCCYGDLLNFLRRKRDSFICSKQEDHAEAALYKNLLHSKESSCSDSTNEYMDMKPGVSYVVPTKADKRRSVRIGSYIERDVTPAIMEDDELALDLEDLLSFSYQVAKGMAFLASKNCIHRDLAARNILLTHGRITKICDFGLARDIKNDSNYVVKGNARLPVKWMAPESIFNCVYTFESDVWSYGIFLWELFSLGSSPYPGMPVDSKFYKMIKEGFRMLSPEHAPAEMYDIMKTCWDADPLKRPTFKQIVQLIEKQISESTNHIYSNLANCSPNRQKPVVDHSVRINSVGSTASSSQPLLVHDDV
# HCoV-OC43 = experiment: microbe, parasite or virus in culture; assay type: cell-based; conditions: for pIC50: read-out: IC50, HCoV-OC43 antiviral assay
# SARS-CoV-2 M^pro = SARS-CoV-2 M^pro (Severe acute respiratory syndrome coronavirus 2, UniProt P0DTD1); experiment: cell-based; conditions: transfected HEK-293T cells, 24 h; for pIC50: read-out: IC50 (approximate), SARS-CoV-2 M^pro activity, GFP normalized to TagBFP2
# A549 cells [1] = conditions: human
# A549 cells [2] = experiment: Compound toxicity assay, live cell imaging of A549 cell growth; conditions: compared to DMSO
# M^pro = conditions: masitinib activity on M^pro; read-out: inhibition constant, Ki; cited from earlier work
# [3] = A549+hACE2 cells, MOI 0.1, 48 h, normalized to DMSO
SMILES,pIC50 (c-Kit enzyme),"pIC50 (HCoV-OC43; Betacoronavirus 1, OC43, 48 h)",Doubling Time (A549 cells [1]; 0.3 µM) [h],Doubling Time (A549 cells [1]; 1 µM) [h],Doubling Time (A549 cells [1]; 3 µM) [h],Doubling Time (A549 cells [1]; 10 µM) [h],also measured
Cc1ccc(NC(=O)c2ccc(CN3CCN(C)CC3)c(O)c2)cc1Nc1nc(-c2cccnc2)cs1 [M1],5.96,5.33,21.75,21.89,23.72,52.78,"IC50 (approximate), SARS-CoV-2 M^pro activity, GFP normalized to TagBFP2 (SARS-CoV-2 M^pro): did not show inhibition of M^pro activity"
"Cc1ccc(NC(=O)c2ccc(CN3CCN(C)CC3)cc2)cc1Nc1nc(-c2cccnc2)cs1 [masitinib (TFA), Masitinib trifluoroacetate salt]",,,,,,,effect on cell growth (in words) (A549 cells [2]; 3 µM dose): still inhibited cell division; effect on cell growth (in words) (A549 cells [2]; 10 µM compound dose): completely inhibited cell growth; pIC50 (HCoV-OC43; [3]): 5.40
CC(=O)Nc1ccc(C)c(Nc2nc(-c3cccnc3)cs2)c1 [M4],,5.24,22.01,21.47,22.28,37.36,
Cc1ccc(NC(=O)c2ccc(CN3CCN(C)CC3)cc2)cc1Nc1nc(-c2cccnc2)cs1 [masitinib],,,,,,,pKi (M^pro): 5.59
Cc1ccc(C(=O)Nc2ccc(C)c(Nc3nc(-c4cccnc4)cs3)c2)cc1 [M3],7.11,5.40,22.13,21.49,22.49,30.76,pIC50 (SARS-CoV-2 M^pro): 5.60
"Cc1ccc(NC(=O)c2ccc(CN3CCN(C)CC3)cc2)cc1Nc1nc(-c2cccnc2)cs1 [masitinib (Original), masitinib]",,5.77,,,,,
Cc1ccc(OC(=O)c2ccc(CN3CCN(C)CC3)cc2)cc1Nc1nc(-c2cccnc2)cs1 [M5],,,22.37,21.95,21.83,25.19,"IC50, HCoV-OC43 antiviral assay (HCoV-OC43; [3]): no measurable antiviral activity"
Cc1ccc(NC(=O)c2ccc(CN3CCN(C)CC3)cc2O)cc1Nc1nc(-c2cccnc2)cs1 [M2],6.63,5.17,21.52,21.44,21.57,33.63,pIC50 (SARS-CoV-2 M^pro): 5.08
